From patent US10940139B2, “Compounds that interact with the Ras superfamily for the treatment of cancers, inflammatory diseases, rasopathies, and fibrotic disease” (Shy Therapeutics LLC, priority 2017, dated 2021)

Legend:
[1] = molecular target: Rac-1 (Homo sapiens (Human), UniProt P63000); test: Rac inhibition assay (labeled GTP); assay type: binding; conditions: read-out: Rac-1 % Inh.
[2] = molecular target: Rho-A (Homo sapiens (Human), UniProt P61586); test: Rho inhibition assay (labeled GTP); assay type: binding; conditions: read-out: Rho-A % Inh.
Sequence of Rho-A (P61586 whole entry, the tested form may be a part): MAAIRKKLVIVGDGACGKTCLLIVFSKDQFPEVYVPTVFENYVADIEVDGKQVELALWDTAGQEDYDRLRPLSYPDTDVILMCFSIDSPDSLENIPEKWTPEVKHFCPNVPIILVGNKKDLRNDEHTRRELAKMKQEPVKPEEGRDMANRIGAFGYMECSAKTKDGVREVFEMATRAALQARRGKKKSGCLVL

[3] = molecular target: KRas G12D/Q61H double mutant (Homo sapiens (Human), UniProt P01116, G12D/Q61H); test: Ras GTP binding domain inhibition assay (labeled GTP); conditions: at 20 μM; read-out: KRas G12D Q61H % Inh.
Sequence of KRas G12D/Q61H double mutant (P01116-2 other isoform, or with tags, fused parts or gaps G12D/Q61H): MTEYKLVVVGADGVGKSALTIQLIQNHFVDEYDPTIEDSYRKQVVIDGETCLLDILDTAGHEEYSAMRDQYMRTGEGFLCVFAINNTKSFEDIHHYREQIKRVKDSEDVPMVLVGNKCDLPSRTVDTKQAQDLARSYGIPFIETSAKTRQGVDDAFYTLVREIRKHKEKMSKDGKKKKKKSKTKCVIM
Summary of the method: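 Fluorescence read-out of Cy3-/Cy5-GTP remaining bound to nickel-immobilized His-KRas after washes. Protein was coated overnight at 4° C, then exposed to compound for 3 h at room temperature before a 45 min labeled-GTP incubation.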

| Structure (SMILES) | inhibition at 20 µM [1] [%] | inhibition at 20 µM [2] [%] | inhibition at 20 µM [3] [%] |
| --- | --- | --- | --- |
| Nc1nc(-c2ccccn2)nc2scc(Br)c12 [drawing 3766] | 51 to 75 | 51 to 75 | 25 to 50 |
| CC(C)c1nn(C)cc1-c1csc2c(O)nc(-c3ccccn3)nc12 [drawing 3820] | 51 to 75 | 51 to 75 | 51 to 75 |
| COC(=O)c1csc2nc(-c3ccccn3)nc(N)c12 [drawing 3767] | 51 to 75 | 51 to 75 | 25 to 50 |
| COc1ccnc(-c2nc(O)c3c(Br)csc3n2)c1 [drawing 3632] | 25 to 50 | 25 to 50 | 25 to 50 |
| O=C(c1csc2c(O)nc(-c3ccccn3)nc12)N1CCOC(c2nccs2)C1 (stereo not drawn) [drawing 3631] | 76 to 100 | 76 to 100 | 25 to 50 |
| COc1cnc(CN)[nH]c1=O [drawing 3690] | 25 to 50 | 25 to 50 | 25 to 50 |
| Cn1cnc(-c2nc(O)c3sc(-c4ccncc4)c(-c4ccccc4)c3n2)c1 [drawing 3867] | 1 to 25 | 25 to 50 | 0 |
| COc1cc(CCNC(=O)c2csc3nc(-c4ccccn4)nc(N4CCOCC4)c23)ccn1 [drawing 3636] | 51 to 75 | 25 to 50 | 1 to 25 |
| COc1nc(-c2ccccn2)nc(Oc2cccc(C(F)(F)F)c2)c1OC [drawing 3870] | 1 to 25 | 0 | 1 to 25 |
| COCCN(CCOC)c1nc(-c2ccccn2)nc2scc(C(=O)NCCc3ccc(OC)nc3)c12 [drawing 3681] | 51 to 75 | 51 to 75 | 1 to 25 |

Other lines, results leading:

| inhibition at 20 µM [1] [%] | inhibition at 20 µM [2] [%] | inhibition at 20 µM [3] [%] | Structure (SMILES) |
| --- | --- | --- | --- |
| 51 to 75 | 51 to 75 | 51 to 75 | Cc1ccc(OC2CCCC2)c(-c2csc3c(O)nc(-c4ccccn4)nc23)c1 [drawing 3716] |
| 0 | 25 to 50 | 1 to 25 | Cc1ccc(-c2csc3c(O)nc(-c4ccccn4)nc23)cc1 [drawing 3878] |
| 51 to 75 | 51 to 75 | 25 to 50 | COc1ccc(CCNC(=O)c2csc3nc(-c4ccccn4)nc(N4CCOCC4)c23)cn1 [drawing 3634] |
| 25 to 50 | 1 to 25 | 25 to 50 | O=C(c1csc2c(O)nc(-c3ccccn3)nc12)N1CCOC(c2cccc(F)c2)C1 (stereo not drawn) [drawing 3630] |
| 1 to 25 | 0 | 0 | Cc1ccc(-c2cc3nc(-c4ccccn4)nc(O)c3s2)cc1 [drawing 3873] |
| 1 to 25 | 51 to 75 | 1 to 25 | O=C(c1csc2c(O)nc(-c3ccccn3)nc12)N1CCOC(c2cccc(Cl)c2)C1 (stereo not drawn) [drawing 3659] |
| 76 to 100 | 76 to 100 | 1 to 25 | O=C(c1csc2c(O)nc(-c3ccccn3)nc12)N1CCNC(c2ccc(F)cc2)C1 (stereo not drawn) [drawing 3696] |
| 1 to 25 | 76 to 100 | 25 to 50 | COc1ccccc1C1CN(C(=O)c2csc3c(O)nc(-c4ccccn4)nc23)CCN1 (stereo not drawn) [drawing 3661] |
| 1 to 25 | 25 to 50 | 0 | COc1cc(N2CCN(C(=O)c3csc4c(O)nc(-c5ccccn5)nc34)CC2)cc(OC)c1OC [drawing 3647] |
| 51 to 75 | 51 to 75 | 0 | O=C(c1csc2c(O)nc(-c3ccccn3)nc12)N1CCN(c2ccc(F)cc2)CC1 [drawing 3643] |
| 1 to 25 | 1 to 25 | 1 to 25 | COc1cnc(CNC(=O)c2csc3c(O)nc(-c4ccccn4)nc23)[nH]c1=O [drawing 3838] |
| 51 to 75 | 76 to 100 | 25 to 50 | Oc1nc(-c2ccccn2)nc2c(CC3CCCNC3)csc12 (stereo not drawn) [drawing 3807] |
